Assay results taken from ChEMBL document CHEMBL1949641, “Anti-inflammatory mechanism of 15,16-epoxy-3α-hydroxylabda-8,13(16),14-trien-7-one via inhibition of LPS-induced multicellular signaling pathways” (J Nat Prod, 2012).
Activity calls are given as the source filed them. The calls are words filed in the database; no cut-off is given here.

Key:
RAW264.7 [1] = test: Antiinflammatory activity in mouse RAW264.7 cells assessed as inhibition of LPS-induced COX2 expression treated 2 hrs before LPS challenge measured after 18 hrs by Western blotting; assay type: functional, cell-based
RAW264.7 [2] = test: Inhibition of NF-kappaB transcriptional activity expressed in mouse RAW264.7 cells assessed as inhibition of LPS-induced secretory alkaline phosphatase expression at 25 uM treated 2 hrs before LPS challenge measured after 18 hrs; assay type: cell-based
RAW264.7 [3] = test: Inhibition of LPS-induced NFkappaB/AP-1 DNA binding activity in mouse RAW264.7 cells treated 2 hrs before LPS challenge measured after 1 hr by electrophoretic mobility shift assay; assay type: cell-based
RAW264.7 [4] = test: Inhibition of NF-kappaB activation in mouse RAW264.7 cells assessed as protection of LPS-induced IkappaBalpha degradation at 50 uM treated 2 hrs before LPS challenge measured after 10 to 20 mins by Western blotting; assay type: cell-based
RAW264.7 [5] = test: Inhibition of NF-kappaB transcriptional activity expressed in mouse RAW264.7 cells assessed as inhibition of LPS-induced secretory alkaline phosphatase expression treated 2 hrs before LPS challenge measured after 18 hrs; assay type: cell-based
RAW264.7 [6] = test: Cytotoxicity against mouse RAW264.7 cells assessed as cell viability up to 50 uM after 24 hrs by MTT assay; assay type: cell-based; settings: raw264.7, 24 h
[7] = target: Transcription factor p65 (Mus musculus) (UniProt Q04207); test: Inhibition of LPS-induced NF-kappaB p65 nuclear translocation in mouse RAW264.7 cells treated 2 hrs before LPS challenge measured up to 1 hr Western blot analysis; assay type: cell-based
Transcription factor p65 (Mus musculus), sequence (Q04207 whole entry): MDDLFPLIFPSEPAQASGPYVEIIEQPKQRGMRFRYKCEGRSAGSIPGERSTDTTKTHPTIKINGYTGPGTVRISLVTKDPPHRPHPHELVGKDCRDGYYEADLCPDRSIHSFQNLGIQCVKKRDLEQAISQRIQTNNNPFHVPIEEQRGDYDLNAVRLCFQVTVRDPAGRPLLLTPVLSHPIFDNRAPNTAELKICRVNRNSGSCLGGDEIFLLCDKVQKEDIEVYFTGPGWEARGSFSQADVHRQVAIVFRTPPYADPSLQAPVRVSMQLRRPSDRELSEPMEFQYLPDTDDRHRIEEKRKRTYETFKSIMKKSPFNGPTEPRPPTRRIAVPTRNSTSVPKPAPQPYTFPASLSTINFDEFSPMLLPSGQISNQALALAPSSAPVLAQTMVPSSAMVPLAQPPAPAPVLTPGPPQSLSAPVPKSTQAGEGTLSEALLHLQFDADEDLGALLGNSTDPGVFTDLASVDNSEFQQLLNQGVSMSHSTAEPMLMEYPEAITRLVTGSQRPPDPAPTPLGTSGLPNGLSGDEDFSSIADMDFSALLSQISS

RAW264.7 [8] = test: Antiinflammatory activity in mouse RAW264.7 cells assessed as inhibition of LPS-induced nitric oxide production treated 2 hrs before LPS challenge measured after 18 hrs by Griess reaction method; assay type: functional, cell-based
[9] = target: T1, Nuclear factor NF-kappa-B p105 subunit (Mus musculus) (UniProt P25799); test: Inhibition of LPS-induced NF-kappaB p50 nuclear translocation in mouse RAW264.7 cells treated 2 hrs before LPS challenge measured up to 1 hr Western blot analysis; assay type: cell-based
T1 sequence (whole entry): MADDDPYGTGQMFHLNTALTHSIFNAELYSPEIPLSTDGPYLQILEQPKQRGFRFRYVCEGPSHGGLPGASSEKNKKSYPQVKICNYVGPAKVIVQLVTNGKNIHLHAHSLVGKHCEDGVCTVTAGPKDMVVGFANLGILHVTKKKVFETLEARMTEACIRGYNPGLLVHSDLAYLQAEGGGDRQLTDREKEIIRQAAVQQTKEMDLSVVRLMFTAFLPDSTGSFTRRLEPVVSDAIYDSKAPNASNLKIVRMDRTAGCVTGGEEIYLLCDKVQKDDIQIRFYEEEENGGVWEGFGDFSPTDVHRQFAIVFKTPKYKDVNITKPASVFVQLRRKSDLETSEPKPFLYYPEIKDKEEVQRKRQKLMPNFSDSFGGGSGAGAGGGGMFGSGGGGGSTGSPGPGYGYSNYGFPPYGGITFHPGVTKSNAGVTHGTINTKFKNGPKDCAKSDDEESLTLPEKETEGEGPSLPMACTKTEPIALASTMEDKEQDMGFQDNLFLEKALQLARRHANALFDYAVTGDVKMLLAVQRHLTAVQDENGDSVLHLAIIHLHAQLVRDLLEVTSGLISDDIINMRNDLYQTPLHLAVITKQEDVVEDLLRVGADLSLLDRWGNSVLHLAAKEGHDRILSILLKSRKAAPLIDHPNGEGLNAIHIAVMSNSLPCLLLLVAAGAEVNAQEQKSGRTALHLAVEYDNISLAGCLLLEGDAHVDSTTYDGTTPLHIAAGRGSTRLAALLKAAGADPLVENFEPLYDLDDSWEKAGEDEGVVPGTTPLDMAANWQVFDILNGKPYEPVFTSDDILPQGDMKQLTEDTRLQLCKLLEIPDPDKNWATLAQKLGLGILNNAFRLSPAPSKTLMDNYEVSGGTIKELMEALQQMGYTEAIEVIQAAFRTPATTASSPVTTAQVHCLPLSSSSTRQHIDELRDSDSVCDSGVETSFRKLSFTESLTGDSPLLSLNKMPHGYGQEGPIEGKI

RAW264.7 [10] = test: Inhibition of NF-kappaB activation in mouse RAW264.7 cells assessed as inhibition of LPS-induced IkappaBalpha phosphorylation at 50 uM treated 2 hrs before LPS challenge measured after 15 to 20 mins by Western blotting; assay type: cell-based
RAW264.7 [11] = test: Antiinflammatory activity in mouse RAW264.7 cells assessed as inhibition of LPS-induced TNFalpha by ELISA; assay type: functional, cell-based
RAW264.7 [12] = test: Antiinflammatory activity in mouse RAW264.7 cells assessed as inhibition of LPS-induced iNOS expression treated 2 hrs before LPS challenge measured after 18 hrs by Western blotting; assay type: functional, cell-based
RAW264.7 [13] = test: Inhibition of LPS-induced NF-kappaB activation in mouse RAW264.7 cells assessed as inhibition ERK phosphorylation at 50 uM treated 2 hrs before LPS challenge measured after 10 to 30 mins by Western blot analysis; assay type: cell-based
RAW264.7 [14] = test: Inhibition of NF-kappaB transcriptional activity expressed in mouse RAW264.7 cells assessed as inhibition of LPS-induced secretory alkaline phosphatase expression at 5 uM treated 2 hrs before LPS challenge measured after 18 hrs; assay type: cell-based
RAW264.7 [15] = test: Inhibition of NF-kappaB transcriptional activity expressed in mouse RAW264.7 cells assessed as inhibition of LPS-induced secretory alkaline phosphatase expression at 15 uM treated 2 hrs before LPS challenge measured after 18 hrs; assay type: cell-based
RAW264.7 [16] = test: Inhibition of LPS-induced NF-kappaB activation in mouse RAW264.7 cells assessed as inhibition p38alpha/beta phosphorylation at 50 uM treated 2 hrs before LPS challenge measured after 30 mins by Western blot analysis; assay type: cell-based
RAW264.7 [17] = test: Inhibition of LPS-induced Akt phosphorylation in mouse RAW264.7 cells treated 2 hrs before LPS challenge measured after 15 to 30 mins by Western blot analysis; assay type: cell-based
RAW264.7 [18] = test: Inhibition of NF-kappaB transcriptional activity expressed in mouse RAW264.7 cells assessed as inhibition of LPS-induced secretory alkaline phosphatase expression at 50 uM treated 2 hrs before LPS challenge measured after 18 hrs; assay type: cell-based
RAW264.7 [19] = test: Inhibition of LPS-induced NF-kappaB activation in mouse RAW264.7 cells assessed as inhibition JNK phosphorylation at 50 uM treated 2 hrs before LPS challenge measured after 30 mins by Western blot analysis; assay type: cell-based
RAW264.7 [20] = test: Inhibition of NF-kappaB transcriptional activity expressed in mouse RAW264.7 cells assessed as inhibition of LPS-induced secretory alkaline phosphatase expression at 10 uM treated 2 hrs before LPS challenge measured after 18 hrs; assay type: cell-based

inhibition [7]	IC50 (RAW264.7 [8]) [µM]	inhibition [9]	IC50 (RAW264.7 [11]) [µM]	SMILES	inhibition (RAW264.7 [1])	inhibition (RAW264.7 [2]) [%]	inhibition (RAW264.7 [3])	Activity (RAW264.7 [4])	inhibition (RAW264.7 [5])	Activity (RAW264.7 [6])	inhibition (RAW264.7 [10])	inhibition (RAW264.7 [12])	inhibition (RAW264.7 [13])	inhibition (RAW264.7 [14]) [%]	inhibition (RAW264.7 [15]) [%]	inhibition (RAW264.7 [16])	inhibition (RAW264.7 [17])	inhibition (RAW264.7 [18]) [%]	inhibition (RAW264.7 [19])	inhibition (RAW264.7 [20])
Dose-dependent effect	27	Dose-dependent effect	38.5	CC1=C(CCc2ccoc2)[C@@]2(C)CC[C@@H](O)C(C)(C)[C@@H]2CC1=O	Dose-dependent effect	69.1	Dose-dependent effect	Active	Dose-dependent effect	Non-toxic	Active	Dose-dependent effect	Active	20.9	56.6	Active	Active	90.3	Active	–
–	–	–	–	Cc1ccc(S(=O)(=O)N[C@@H](Cc2ccccc2)C(=O)CCl)cc1	–	–	–	–	–	–	–	–	–	–	–	–	–	–	–	Active
